Results on 16 molecules are retold here after patent publication US20150352108A1, “AMINO-PYRIMIDINE COMPOUNDS AS INHIBITORS OF TBK1 AND/OR IKK EPSILON” (Alzheimer's Institute of America, priority 2009, published 2015).

Where two headings read alike, the source gives them in different places.

As a reminder, the IC50 is the midpoint of a concentration-inhibition curve.

For experiment [1], the system named is IKKε-mediated phosphorylation of IRF3. The experiment in a line: In-situ phosphorylation of IRF3 (pIRF3 Ser396 ELISA) in HEK293T cells cotransfected with IRF3 and IKKε. It counts as cell-based. The conditions noted are these: Homo sapiens, HEK-293T. Put shortly:
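For the IRF3 ELISA, HEK293T cells cotransfected with IRF3 and IKKε were replated at 20,000/well and treated 20 h. Phospho-Ser396 IRF3 was measured by ELISA and normalised to DMSO, with viability checked by CellTiter-Glo. For IRF7, cells transfected with IRF7 and TBK1 were treated overnight, and pSer477/Ser479 IRF7 was detected by Western blot.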
A general note: An ELISA detects its analyte on a solid surface through an enzyme-linked reagent.

In the next experiment the target is T1, TBK1 (Homo sapiens, UniProt Q9UHD2).
T1 construct: His-tag; made in house; host or cells: Sf9 insect cells
T1 sequence (Q9UHD2 1-729): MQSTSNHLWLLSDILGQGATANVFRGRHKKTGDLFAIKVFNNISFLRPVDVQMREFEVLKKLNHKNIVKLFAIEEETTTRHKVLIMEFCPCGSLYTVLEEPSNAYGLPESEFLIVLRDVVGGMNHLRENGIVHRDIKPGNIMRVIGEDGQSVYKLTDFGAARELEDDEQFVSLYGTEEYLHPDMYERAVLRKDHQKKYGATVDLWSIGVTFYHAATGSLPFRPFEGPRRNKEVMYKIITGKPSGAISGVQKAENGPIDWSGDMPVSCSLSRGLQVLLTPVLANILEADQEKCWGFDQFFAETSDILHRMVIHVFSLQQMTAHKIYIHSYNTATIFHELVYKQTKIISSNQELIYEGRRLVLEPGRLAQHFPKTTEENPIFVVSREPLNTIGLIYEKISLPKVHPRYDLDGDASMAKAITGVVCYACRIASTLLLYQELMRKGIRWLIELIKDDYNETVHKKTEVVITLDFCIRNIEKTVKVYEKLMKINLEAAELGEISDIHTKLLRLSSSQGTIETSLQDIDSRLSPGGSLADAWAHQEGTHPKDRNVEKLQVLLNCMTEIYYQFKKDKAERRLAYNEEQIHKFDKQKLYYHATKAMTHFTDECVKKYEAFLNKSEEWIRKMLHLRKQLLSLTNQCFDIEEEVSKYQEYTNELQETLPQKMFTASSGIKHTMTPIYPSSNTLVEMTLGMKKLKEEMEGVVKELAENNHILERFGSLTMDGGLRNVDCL
Put plainly: In-vitro TBK1 kinase assay ([γ33]ATP filter-plate). It counts as biochemical. Put shortly:
(§1)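 His-tagged IKKε and TBK1 from Sf9 cells were assayed with myelin basic protein or casein and [γ33]ATP at 2×Km ATP (32 μM for IKKε, 60 μM for TBK1). Enzyme was 0.1 or 0.015 μg/ml for IKKε and 0.1 or 0.02 μg/ml for TBK1 (normal/sensitized). Reactions ran 30-45 min, were filter-captured, scintillation-counted, and normalized to DMSO after background subtraction.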

The target in another experiment is T2, IKKε (Homo sapiens, UniProt Q14164).
T2 construct: His-tag; made in house; host or cells: Sf9 insect cells
T2 sequence (Q14164 1-716): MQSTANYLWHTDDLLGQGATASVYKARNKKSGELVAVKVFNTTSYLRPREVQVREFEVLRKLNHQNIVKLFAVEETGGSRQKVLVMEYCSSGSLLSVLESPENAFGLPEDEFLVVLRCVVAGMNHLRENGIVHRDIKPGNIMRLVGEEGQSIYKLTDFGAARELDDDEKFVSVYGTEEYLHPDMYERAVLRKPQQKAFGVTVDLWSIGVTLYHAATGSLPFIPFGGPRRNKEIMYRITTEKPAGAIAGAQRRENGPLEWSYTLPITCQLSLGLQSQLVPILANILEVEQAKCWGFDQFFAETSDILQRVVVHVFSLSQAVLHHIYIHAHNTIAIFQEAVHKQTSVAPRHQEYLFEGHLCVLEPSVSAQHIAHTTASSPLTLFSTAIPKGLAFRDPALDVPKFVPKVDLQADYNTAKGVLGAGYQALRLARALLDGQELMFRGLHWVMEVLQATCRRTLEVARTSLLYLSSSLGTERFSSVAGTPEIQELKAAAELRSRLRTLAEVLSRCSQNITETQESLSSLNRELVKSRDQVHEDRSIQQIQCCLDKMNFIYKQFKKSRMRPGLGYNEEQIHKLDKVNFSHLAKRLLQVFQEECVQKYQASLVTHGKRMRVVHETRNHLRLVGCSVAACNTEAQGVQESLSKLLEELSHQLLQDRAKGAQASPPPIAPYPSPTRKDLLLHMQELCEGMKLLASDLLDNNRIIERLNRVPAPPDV
The experiment in a line: In-vitro IKKε kinase assay ([γ33]ATP filter-plate). Type of experiment: biochemical. Put shortly: as §1

Setting [2] is: HEK293T cells in culture, Table 3, read-out: pIRF3 ELISA IC50.
Setting [3] is: HEK293T cells, 20 hours, text bins, read-out: IC50 for inhibition of the in-situ IKKε-mediated phosphorylation of IRF3.
The mark [4] stands for this setting: text bins, read-out: IC50 for inhibition of the kinase activity of TBK1.
Setting [5] is: text bins, read-out: IC50 for inhibition of the kinase activity of IKKε.

For the molecule `N#Cc1cc(-c2ccnc(Nc3ccc(N4CCOCC4)cc3)n2)ccc1NC(=O)CC(F)(F)F` [Example 93, N-[2-cyano-4-(2-{[4-(morpholin-4-yl)phenyl]amino}pyrimidin-4-yl)phenyl]-3,3,3-trifluoropropanamide], the half-inhibitory concentration (IC50) was 139 nM in experiment [1] (setting [2]); 100 to 250 nM in experiment [1] (setting [3]); 0.3 nM at TBK1 (Table 3, read-out: TBK1 IC50); less than 10 nM at TBK1 (setting [4]); 0.7 nM at IKKε (Table 3, read-out: IKKε IC50); less than 5 nM on IKKε (setting [5]).
Consider `COc1ccc(Nc2nccc(-c3ccc(OC4CCOCC4)c(C#N)c3)n2)cc1OCCCN1CCNCC1` [compound 526, 5-[2-({4-methoxy-3-[3-(piperazin-1-yl)propoxy]phenyl}amino)pyrimidin-4-yl]-2-(tetrahydro-2H-pyran-4-yloxy)benzonitrile], for which the IC50 was 100 to 250 nM in experiment [1] (setting [3]), less than 10 nM at TBK1 (setting [4]) and less than 5 nM on IKKε (setting [5]).
Taken in the same sequence, the figures for `COc1cc(Nc2nccc(-c3ccc(OC4CCOCC4)c(C#N)c3)n2)ccc1OCCCN1CCN(C)CC1` [Example 256, 5-[2-({3-methoxy-4-[3-(4-methylpiperazin-1-yl)propoxy]phenyl}amino)pyrimidin-4-yl]-2-(tetrahydro-2H-pyran-4-yloxy)benzonitrile] were 100 to 250 nM, less than 10 nM and less than 5 nM.
Taken in the same sequence, the figures for `COc1ccc(Nc2nccc(-c3ccc(N(C)C)c(C#N)c3)n2)cc1OC` [Example 206, 5-{2-[(3,4-Dimethoxyphenyl)amino]pyrimidin-4-yl}-2-(dimethylamino) benzonitrile] were 250 to 500 nM, less than 10 nM and less than 5 nM.
For `CN1CCC(NCc2cccc(Nc3nccc(-c4ccc(OC5CCOCC5)c(C#N)c4)n3)c2)CC1` [Example 271, 5-{2-[(3-{[(1-Methylpiperidin-4-yl)amino]methyl}phenyl)amino]pyrimidin-4-yl}-2-(tetrahydro-2H-pyran-4-yloxy)benzonitrile] the same measures were less than 100 nM, less than 10 nM and less than 5 nM.
In the case of `COc1cc(Nc2nccc(-c3ccc(OC4CCOCC4)c(C#N)c3)n2)ccc1S(=O)(=O)N(C)C1CCN(C)CC1` [Example 212], the results for the IC50 (in experiment [1] (setting [3]); on TBK1 (setting [4]); at IKKε (setting [5])) were less than 100 nM, less than 10 nM and less than 5 nM, respectively.
With `Cc1ccc(Nc2nccc(-c3ccc(OC4CCOCC4)c(C#N)c3)n2)cc1OCCN` [compound 559, 5-(2-{[3-(2-Aminoethoxy)-4-methylphenyl]amino}pyrimidin-4-yl)-2-(tetrahydro-2H-pyran-4-yloxy)benzonitrile], the IC50 was less than 100 nM in experiment [1] (setting [3]), less than 10 nM on TBK1 (setting [4]) and less than 5 nM on IKKε (setting [5]).
Taken in the same sequence, the figures for `N#Cc1cc(-c2ccnc(Nc3ccc(N4CCOCC4)cc3)n2)ccc1NCc1ccccn1` [Example 64, 5-(2-{[4-(Morpholin-4-yl)phenyl]amino}pyrimidin-4-yl)-2-[(pyridin-2-ylmethyl)amino] benzonitrile] were 250 to 500 nM, less than 10 nM and 5 to 50 nM.
For `COc1cc(Nc2nccc(-c3ccc(OC4CCOCC4)c(C#N)c3)n2)ccc1O` [Example 262, 5-{2-[(4-hydroxy-3-methoxyphenyl)amino]pyrimidin-4-yl}-2-(tetrahydro-2H-pyran-4-yloxy)benzonitrile], the IC50 in experiment [1] (setting [3]) was 250 to 500 nM; at TBK1 (setting [4]) it was less than 10 nM; at IKKε (setting [5]), less than 5 nM.
For the molecule `COCCNC(=O)Nc1cccc(Nc2nccc(-c3ccc(OC4CCOCC4)c(C#N)c3)n2)c1` [compound 543, 1-[3-({4-[3-Cyano-4-(tetrahydro-2H-pyran-4-yloxy)phenyl]pyrimidin-2-yl}amino)phenyl]-3-(2-methoxyethyl)urea], the half-inhibitory concentration (IC50) in experiment [1] (setting [2]) is 50.3 nM; in experiment [1] (setting [3]), less than 100 nM; on TBK1 (Table 3, read-out: TBK1 IC50), 1.3 nM; on TBK1 (setting [4]), less than 10 nM; on IKKε (Table 3, read-out: IKKε IC50), 1.1 nM; at IKKε (setting [5]), less than 5 nM.
On to `N#Cc1cc(-c2ccnc(Nc3cccc(CN4CCC(O)C4)c3)n2)ccc1OC1CCOCC1` (stereo not drawn) [compound 561, 5-[2-({3-[(3-Hydroxypyrrolidin-1-yl)methyl]phenyl}amino)pyrimidin-4-yl]-2-(tetrahydro-2H-pyran-4-yloxy)benzonitrile], for which the IC50 in experiment [1] (setting [2]) was 56 nM; in experiment [1] (setting [3]), less than 100 nM; on TBK1 (Table 3, read-out: TBK1 IC50), 0.7 nM; at TBK1 (setting [4]), less than 10 nM; on IKKε (Table 3, read-out: IKKε IC50) it was 0.4 nM; at IKKε (setting [5]) it was less than 5 nM.
For `CN(C)CCCNS(=O)(=O)c1ccc(Nc2nccc(-c3ccc(OC4CCOCC4)c(C#N)c3)n2)cc1` [Example 3, 4-({4-[3-cyano-4-(tetrahydro-2H-pyran-4-yloxy)phenyl]pyrimidin-2-yl}amino)-N-[3-(dimethylamino)propyl] benzenesulfonamide], the concentration for half-maximal inhibition (IC50) was 280 nM in experiment [1] (setting [2]); 250 to 500 nM in experiment [1] (setting [3]); 0.2 nM on TBK1 (Table 3, read-out: TBK1 IC50); less than 10 nM on TBK1 (setting [4]); 2.8 nM on IKKε (Table 3, read-out: IKKε IC50); less than 5 nM on IKKε (setting [5]).
Consider `COc1cc(Nc2nccc(-c3ccc(OC4CCOCC4)c(C#N)c3)n2)ccc1CN1C[C@@H](C)O[C@@H](C)C1` [compound 480, 5-{2-[(4-{[(2R,6S)-2,6-Dimethylmorpholin-4-yl]methyl}-3-methoxyphenyl)amino]pyrimidin-4-yl}-2-(tetrahydro-2H-pyran-4-yloxy)benzonitrile], for which the concentration for half-maximal inhibition (IC50) was less than 100 nM in experiment [1] (setting [3]), less than 10 nM on TBK1 (setting [4]) and less than 5 nM at IKKε (setting [5]).
For `CN(C)S(=O)(=O)Cc1cccc(Nc2nccc(-c3ccc(OC4CCOCC4)c(C#N)c3)n2)c1` [compound 601, 1-[3-({4-[3-Cyano-4-(tetrahydro-2H-pyran-4-yloxy)phenyl]pyrimidin-2-yl}amino)phenyl]-N,N-dimethylmethane-sulfonamide], the half-maximal inhibitory concentration (IC50) in experiment [1] (setting [2]) was 276 nM; in experiment [1] (setting [3]), 250 to 500 nM; on TBK1 (Table 3, read-out: TBK1 IC50), 0.4 nM; at TBK1 (setting [4]) it was less than 10 nM; at IKKε (Table 3, read-out: IKKε IC50) it was 2.4 nM; on IKKε (setting [5]), less than 5 nM.
With `COc1cc(Nc2nccc(-c3ccc(OC4CCOCC4)c(C#N)c3)n2)ccc1OCCCS(=O)(=O)N1CCN(C)CC1` [Example 25, 5-{2-[(3-methoxy-4-{3-[(4-methylpiperazin-1-yl)sulfonyl]propoxy}phenyl)amino]pyrimidin-4-yl}-2-(tetrahydro-2H-pyran-4-yloxy)benzonitrile], the IC50 in experiment [1] (setting [3]) is 100 to 250 nM; on TBK1 (setting [4]), less than 10 nM; on IKKε (setting [5]), less than 5 nM.
For the molecule `C[C@H](O)C(=O)NCc1ccc(Nc2nccc(-c3ccc(OC4CCOCC4)c(C#N)c3)n2)cc1` [compound 494, (2S)-N-[4-({4-[3-cyano-4-(tetrahydro-2H-pyran-4-yloxy)phenyl]pyrimidin-2-yl}amino)benzyl]-2-hydroxypropanamide], the IC50 in experiment [1] (setting [3]) is 100 to 250 nM; on TBK1 (setting [4]) it was less than 10 nM; on IKKε (setting [5]) it was less than 5 nM.
